These results are taken from PMC12102733, “The mycotoxin Beauvericin is an uncompetitive inhibitor of Cathepsin B” (Protein Science : A Publication of the Protein Society, 2025).

Data set [1] is described as follows: Solubility in aqueous buffers. It is filed as physicochemical. Conditions: 0.1% (v/v) Tween 20 used to increase solubility. How it is done: NMR experiments were performed at 298 K on Bruker Avance III HD spectrometers operating at 750 MHz, equipped with 5 mm triple resonance TCI (^1H, ^13C, ^15N) cryoprobes and shielded z‐gradients. BEA compound was purchased (Item No. 11426) from Cayman Chemical, Ann Arbor, Michigan, USA, and recombinant human CTSB (6His tag at the C‐terminus) was purchased (Item No. 153921.10) from Biomol GmbH, Hamburg, Germany. Both CTSB and BEA were used without any further purifications. The purity of the compound (>95%) was checked by 1D ^1H NMR of 250 μM BEA compound measured (256 scans) in 90% (v/v) DMSOd6 (Figure 2a). […] To perform STD‐NMR experiments, 5 μM of CTSB and 250 μM BEA were prepared in 25 mM oxalic acid/sodium oxalate, 5% (v/v) DMSOd6, pH 5.0, 10% (v/v) D2O, and 0.1% (v/v) Tween 20. The STD‐NMR spectra were acquired with 4928 scans, and the subtraction of the reference spectrum was performed internally via phase cycling after every scan to obtain the STD effect. […] There was no compound signal detected below 0 ppm. […] The STD intensity of the aromatic proton STD effect was set to 100% as a reference, and the relative intensities were determined (Mayer and Meyer [2001]). […] Data was processed and analyzed with TopSpin 3.2 (Bruker BioSpin). […]

In another data set the target is T1, human CTSB (Homo sapiens, UniProt P07858).
T1 construct: purchased R&D Biosystems 953‐CY
The experiment in a line: Enzyme kinetics of recombinant human CTSB in the presence of BEA. The following applies: uncompetitive; approximated from closest neighbor intersection point of [S]/v vs. [I] plot; Z-Leu-Arg AMC substrate, BEA 0-25 μM, 25 mM MES pH 5, 26°C; read-out: K i (estimated). The data set is classed as biochemical. As for the experimental part:
Recombinant human CTSB (R&D Biosystems, Cat# 953‐CY) was activated in a solution of 25 mM MES pH 5 and 5 mM DTT at a protein concentration of 25 μg/mL, as indicated by the manufacturer. The activation was carried out by incubating the solution in a thermal bath at 26°C for 30 min and then diluting it to a concentration of 0.2 μg/mL in a 25 mM MES buffer pH 5. Complete conversion of Procathepsin B into its cleaved form by activation was verified by SDS‐PAGE (Figure S1, Supporting Information).
Reactions were carried out in a 96‐well black microplate (Greiner Bio‐One, Cat# 675086) in a final volume of 100 μL, using 20 ng of enzyme with increasing concentrations of the fluorogenic substrate Z‐Leu‐Arg AMC (R&D Biosystems, Cat# ES008) (from 0 to 200 μM) and BEA (from 0 to 25 μM).
Progress curves were measured using a TECAN infinite M plex microplate reader with an excitation wavelength of 380 nm and an emission wavelength of 460 nm. All the components, except the enzyme, were loaded onto the plate and were left to reach a temperature of 26°C. Protein samples were loaded using a multichannel pipette. Plates were shaken using a pulse of 3.5 s with an amplitude of 4.5 mm. Data was collected for a total of 1400 s with a reading interval of 45 s.
Reaction rates were calculated from the progress curves using linear regression. […]

Consider `CC(C)[C@H]1OC(=O)[C@H](Cc2ccccc2)N(C)C(=O)[C@@H](C(C)C)OC(=O)[C@H](Cc2ccccc2)N(C)C(=O)[C@@H](C(C)C)OC(=O)[C@H](Cc2ccccc2)N(C)C1=O` [BEA, Beauvericin], for which, in data set [1], the “solubility in aqueous buffers” value is given as “sparingly soluble in aqueous buffers”. In addition, the Ki at human CTSB is about 44.3 µM.
